Structures can show the parent of a compound that is named as a salt.

Data set [1] is classed as in vivo. The settings on record: rats; fexofenadine 10 mg/kg oral; control group without KRG.
For another data set, the system named is CYP1A1. As to conditions: HepG2 cells; cited from earlier work.
The next data set deals with CYP3A4. The settings on record: cited from earlier work.
The test system of a further data set is CYP2C9. The settings on record: cited from earlier work.
The next data set relates to CYP2C19. The settings on record: cited from earlier work.
Another data set concerns CYP2D6. The settings on record: cited from earlier work.
A further data set deals with drug-resistant KBV cells. As to conditions: cited from earlier work.
Another data set concerns P-gp. As to conditions: cited from earlier work.

`CC(C)(C(=O)O)c1ccc(C(O)CCCN2CCC(C(O)(c3ccccc3)c3ccccc3)CC2)cc1` (stereo not drawn) [fexofenadine, Fexofenadine hydrochloride]: in data set [1], the “mean maximum concentration of fexofenadine” value was determined as 32 ng/mL.

Take `CC(C)=CCC[C@](C)(O[C@@H]1O[C@H](CO[C@@H]2OC[C@H](O)[C@H](O)[C@H]2O)[C@@H](O)[C@H](O)[C@H]1O)[C@H]1CC[C@]2(C)[C@@H]1[C@H](O)C[C@@H]1[C@@]3(C)CC[C@H](O[C@@H]4O[C@H](CO)[C@@H](O)[C@H](O)[C@H]4O[C@@H]4O[C@H](CO)[C@@H](O)[C@H](O)[C@H]4O)C(C)(C)[C@@H]3CC[C@]12C` [ginsenoside Rb2]: in the data set on CYP1A1, the “mRNA level of CYP1A1” value is listed as “significantly increased”. In the case of `CC(C)=CCC[C@](C)(O[C@@H]1O[C@H](CO)[C@@H](O)[C@H](O)[C@H]1O)[C@H]1CC[C@]2(C)[C@@H]1[C@H](O)C[C@@H]1[C@@]3(C)CC[C@H](O[C@@H]4O[C@H](CO)[C@@H](O)[C@H](O)[C@H]4O[C@@H]4O[C@H](CO)[C@@H](O)[C@H](O)[C@H]4O)C(C)(C)[C@@H]3CC[C@]12C` [ginsenoside Rd], in the data set with CYP3A4, the “inhibition of CYP3A4” value was “weak inhibition”. In the data set with CYP2C9, the “inhibition of CYP2C9” value is given as “weak inhibition”. Besides, the “inhibition of CYP2C19” value with CYP2C19 is given as “weak inhibition”. In addition, the “inhibition of CYP2D6” value with CYP2D6 was “weak inhibition”.

Consider `CC(C)=CCC[C@](C)(O[C@@H]1O[C@H](CO)[C@@H](O)[C@H](O)[C@H]1O)[C@H]1CC[C@]2(C)[C@@H]1[C@H](O)C[C@@H]1[C@@]3(C)CC[C@H](O)C(C)(C)[C@@H]3[C@@H](O[C@@H]3O[C@H](CO)[C@@H](O)[C@H](O)[C@H]3O)C[C@]12C` [ginsenoside Rg1], for which the “mRNA level of CYP1A1” value in the data set on CYP1A1 was “significantly increased”. As for `CC(C)=CCC[C@](C)(O)[C@H]1CC[C@]2(C)[C@@H]1[C@H](O)C[C@@H]1[C@@]3(C)CC[C@H](O[C@@H]4O[C@H](CO)[C@@H](O)[C@H](O)[C@H]4O[C@@H]4O[C@H](CO)[C@@H](O)[C@H](O)[C@H]4O)C(C)(C)[C@@H]3CC[C@]12C` [ginsenoside Rg3], in the data set on drug-resistant KBV cells, the “(3H) vinblastine efflux” value is reported as “inhibited”. Take `Cc1ncc2n1-c1ccc(Cl)cc1C(c1ccccc1F)=NC2` [midazolam]: the “transport by P-gp” value in the data set on P-gp was “not transported”.

(Values after publication PMC6035379 (Journal of Ginseng Research, 2017).)
